Laboratory results reported in patent publication US12723063B2, “GIPR-agonist compounds” (Eli Lilly and Company, priority 2019, dated 2026).
*1 amine or outer side, *2 acyl side, *3 side chain or, on linkers, in order; H or OH if unused. Where a SMILES comes first, the peptide text is derived from it. Side-chain parts run from the residue outwards. [ ]: non-standard residue; d: D form. The star is where a group is joined. C20 diacid = O=C(O)CCCCCCCCCCCCCCCCCCC(=O)*; γGlu = O=C(O)[C@H](CCC(=O)[*:2])N[*:1]; AEEA = NCCOCCOCC(=O)O; Aib = CC(C)(N)C(=O)O

Tests used:
human GcgR = molecular target: T1, human GcgR (Homo sapiens, UniProt P47871); assay: [125I]-Glucagon binding, SPA with WGA beads, 0.1% bacitracin; conditions: geometric mean, read-out: hGcgR Ki
T1 construct: expressed in transfected cells; crude membranes
T1 sequence (P47871 26-477): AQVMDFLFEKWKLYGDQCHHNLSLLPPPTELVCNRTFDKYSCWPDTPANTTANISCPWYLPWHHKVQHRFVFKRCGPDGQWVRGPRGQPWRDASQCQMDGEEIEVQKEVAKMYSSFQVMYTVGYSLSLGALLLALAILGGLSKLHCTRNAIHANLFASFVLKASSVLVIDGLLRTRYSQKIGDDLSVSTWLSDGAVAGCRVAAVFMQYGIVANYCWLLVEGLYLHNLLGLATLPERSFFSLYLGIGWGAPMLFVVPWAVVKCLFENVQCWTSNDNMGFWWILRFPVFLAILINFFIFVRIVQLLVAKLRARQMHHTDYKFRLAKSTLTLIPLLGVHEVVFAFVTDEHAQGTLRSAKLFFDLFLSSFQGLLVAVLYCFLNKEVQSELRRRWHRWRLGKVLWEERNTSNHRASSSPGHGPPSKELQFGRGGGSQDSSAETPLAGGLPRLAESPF
Protocol: Stably transfected cell lines are prepared by subcloning receptor cDNA into a pcDNA3 expression plasmid and transfected into human embryonic kidney (HEK) 293 (hGcgR and hGLP-1R) or Chinese Hamster Ovary (CHO) (hGIPR) cells followed by selection with Geneticin (hGLP-1R and hGIPR) or hygromycin B (hGcgR).
Two methods are used for the preparation of crude cell membranes.
Method 1: Frozen cell pellets are lysed on ice in hypotonic buffer containing 50 mM Tris HCl, pH 7.5, and Roche Complete™ Protease Inhibitors with EDTA. The cell suspension is disrupted using a glass Potter-Elvehjem homogenizer fitted with a Teflon® pestle for 25 strokes. The homogenate is centrifuged at 4° C. at 1100× g for 10 minutes. The supernatant is collected and stored on ice while the pellets are resuspended in homogenization buffer and rehomogenized as described above. The homogenate is centrifuged at 1100× g for 10 minutes. The second supernatant is combined with the first supernatant and centrifuged at 35000× g for 1 hour at 4° C. The resulting membrane pellet is resuspended in homogenization buffer containing protease inhibitors at approximately 1 to 3 mg/mL, quick frozen in liquid nitrogen and stored as aliquots in a −80° C. freezer until use.
Method 2: Frozen cell pellets are lysed on ice in hypotonic buffer containing 50 mM Tris HCl, pH 7.5, 1 mM MgCl2, Roche Complete™ EDTA-free Protease Inhibitors and 25 units/mL DNAse I (Invitrogen). The cell suspension is disrupted using a glass Potter-Elvehjem homogenizer fitted with a Teflon® pestle for 20 to 25 strokes. The homogenate is centrifuged at 4° C. at 1800× g for 15 minutes. The supernatant is collected and stored on ice while the pellets are resuspended in homogenization buffer (without DNAse I) and rehomogenized as described above. The homogenate is centrifuged at 1800× g for 15 minutes. The second supernatant is combined with the first supernatant and centrifuged an additional time at 1800× g for 15 minutes. The overall supernatant is then centrifuged at 25000× g for 30 minutes at 4° C. The resulting membrane pellet is resuspended in homogenization buffer (without DNAse I) containing protease inhibitors at approximately 1 to 3 mg/mL and stored as aliquots in a −80° C. freezer until use.
The human Geg receptor binding assays are performed using a Scintillation Proximity Assay (SPA) format with wheat germ agglutinin (WGA) beads (Perkin Elmer). The binding buffer contains 25 mM 4-(2-hydroxyethyl)-1-piperazineethanesulfonic acid (HEPES), pH 7.4, 2.5 mM CaCl2), 1 mM MgCl2, 0.1% (w/v) bacitracin (Research Products), 0.003% (w/v) Polyoxyethylenesorbitan monolaurate (TWEEN®-20), and Roche Complete™ Protease Inhibitors without EDTA. Peptides and Gcg are thawed and 3-fold serially diluted in 100% DMSO (10 point concentration response curves). Next, 5 μL serially diluted compound or DMSO is transferred into Corning® 3632 clear bottom assay plates containing 45 μL assay binding buffer or unlabeled Gcg control (non-specific binding or NSB, at 1 μM final). […] Plates are sealed and mixed on a plate shaker (setting 6) for 1 minute and read with a PerkinElmer Trilux MicroBeta® scintillation counter after 12 hours of incubation/settling time at room temperature.
Data are analyzed using four-parameter (curve maximum, curve minimum, IC50, Hill slope) nonlinear regression routines (Genedata Screener, version 12.0.4, Genedata AG, Basal, Switzerland). […] Values for Ki are reported as the geometric mean, with error expressed as the standard error of the mean (SEM) and n is equal to the number of independent replicates (determined in assays performed on different days). […] SEM is only calculated when […] or greater. Means are expressed as geometric means with the standard error of the mean (SEM) and the number of replicates (n) indicated in parentheses.

[1] = molecular target: T2, human GLP-1 receptor (GLP-1R) (Homo sapiens, UniProt P43220); assay: cAMP functional assay (HTRF) in HEK293 cells in presence of 0.1% casein; format: cell-based; conditions: HEK293 cells expressing human GLP-1R, geometric mean, read-out: hGLP1R cAMP Rel EC50 nM (SEM, n)
T2 construct: expressed in transfected cells; host or cells: HEK293
T2 sequence (P43220 24-463): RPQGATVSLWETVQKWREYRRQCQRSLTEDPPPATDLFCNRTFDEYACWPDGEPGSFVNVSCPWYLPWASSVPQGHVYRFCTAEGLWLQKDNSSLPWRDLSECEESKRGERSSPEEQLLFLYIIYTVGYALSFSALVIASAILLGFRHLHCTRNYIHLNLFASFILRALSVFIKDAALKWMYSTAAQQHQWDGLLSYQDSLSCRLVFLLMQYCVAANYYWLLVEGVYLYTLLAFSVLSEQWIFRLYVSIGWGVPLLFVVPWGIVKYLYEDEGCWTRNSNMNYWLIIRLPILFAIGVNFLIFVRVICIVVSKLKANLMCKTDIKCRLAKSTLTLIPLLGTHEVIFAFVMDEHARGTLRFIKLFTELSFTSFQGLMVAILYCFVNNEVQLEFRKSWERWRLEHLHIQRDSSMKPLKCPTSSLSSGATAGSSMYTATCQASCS
Protocol: Each receptor over-expressing cell line (20 μl) is treated with the test peptide in DMEM (Gibco Cat #31053) supplemented with 0.1% Casein (Sigma Cat #C4765), 250 μM IBMX, 1× GlutaMAX™ (Gibco Cat #35050), and 20 mM HEPES (HyClone Cat #SH30237.01) in a 20 μl assay volume. After incubating for 60 minutes at room temperature, the resulting increase in intracellular CAMP is quantitatively determined using the CisBio CAMP Dynamic 2 HTRF Assay Kit (62AM4PEJ). The Lysis buffer containing cAMP-d2 conjugate (20 μl) and the antibody anti-cAMP-Eu3+-Cryptate (20 μl) are then added to determine the cAMP level. After incubating 60 minutes at room temperature, HTRF signal is detected with an Envision 2104 plate reader (PerkinElmer). Fluorescent emission at 620 nm and at 665 nm is measured and the ratio between 620 nm and at 665 nm is calculated and then are converted to nM cAMP per well using a cAMP standard curve. Dose response curves of compounds are plotted as the percentage of stimulation normalized to minimum (buffer only) and maximum (maximum concentration of each control ligand) values and analyzed using a four parameter non-linear regression fit with a variable slope (Genedata Screener 13). EC50 is the concentration of compound causing half-maximal simulation in a dose response curve. A relative EC50 value is derived by non-linear regression analysis using the percent maximal response vs, the concentration of peptide added, fitted to a four-parameter logistic equation.
Intracellular cAMP levels are determined by extrapolation using a standard curve. Dose response curves of compounds are plotted as the percentage of stimulation normalized to minimum (buffer only) and maximum (maximum concentration of each control ligand) values and analyzed using a four-parameter non-linear regression fit with a variable slope (Genedata Screener 13). EC50 is the concentration of compound causing half-maximal simulation in a dose response curve. Each relative EC50 value for the geometric mean calculation is determined from a curve fitting.
Concentration response curves of compounds are plotted as the percentage of stimulation normalized to minimum (buffer only) and maximum (maximum concentration of each control ligand) values and analyzed using a four-parameter non-linear regression fit with a variable slope (Genedata Screener 13). EC50 is the concentration of compound causing half-maximal simulation in a dose response curve. […] The standard error of the mean is reported:
[formula] • The log transform accounts for the EC50 values falling on a multiplicative, rather than an arithmetic scale.
For illustration, as shown by Example 1, the peptide is tested in 8 runs of the hGIPR CAMP assay. […] Accordingly, each Example will use the geometric mean of those values to normalize the Example assay runs.

CC[C@H](C)[C@H](NC(=O)[C@H](CCCCN)NC(=O)[C@H](CC(=O)O)NC(=O)[C@H](CC(C)C)NC(=O)[C@](C)(CC(C)C)NC(=O)[C@@H](NC(=O)[C@H](CO)NC(=O)[C@H](Cc1ccc(O)cc1)NC(=O)[C@H](CC(=O)O)NC(=O)[C@H](CO)NC(=O)[C@@H](NC(=O)[C@H](Cc1ccccc1)NC(=O)[C@@H](NC(=O)CNC(=O)[C@H](CCC(=O)O)NC(=O)C(C)(C)NC(=O)[C@@H](N)Cc1ccc(O)cc1)[C@@H](C)O)[C@@H](C)CC)[C@@H](C)CC)C(=O)N[C@@H](Cc1c[nH]cn1)C(=O)N[C@@H](CCC(N)=O)C(=O)NC(C)(C)C(=O)N[C@@H](CC(=O)O)C(=O)N[C@@H](Cc1ccccc1)C(=O)N[C@H](C(=O)N[C@@H](CCC(=O)O)C(=O)N[C@@H](Cc1ccc(O)cc1)C(=O)N[C@@H](CCCCNC(=O)COCCOCCNC(=O)COCCOCCNC(=O)CC[C@H](NC(=O)CCCCCCCCCCCCCCCCCCC(=O)O)C(=O)O)C(=O)N[C@@H](CC(C)C)C(=O)N[C@@H](CCC(=O)O)C(=O)NCC(=O)NCC(=O)N1CCC[C@H]1C(=O)N[C@@H](CO)C(=O)N[C@@H](CO)C(=O)NCC(=O)N[C@@H](C)C(=O)N1CCC[C@H]1C(=O)N1CCC[C@H]1C(=O)N1CCC[C@H]1C(=O)N[C@@H](CO)C(N)=O)C(C)C [Example 5]
Ki (human GcgR): 619 nM | EC50 [1]: > 5000 nM

CC[C@H](C)[C@H](NC(=O)[C@H](CCCN)NC(=O)[C@H](CC(=O)O)NC(=O)[C@H](CC(C)C)NC(=O)[C@](C)(CC(C)C)NC(=O)[C@@H](NC(=O)[C@H](CO)NC(=O)[C@H](Cc1ccc(O)cc1)NC(=O)[C@H](CC(=O)O)NC(=O)[C@H](CO)NC(=O)[C@@H](NC(=O)[C@H](Cc1ccccc1)NC(=O)[C@@H](NC(=O)CNC(=O)[C@H](CCC(=O)O)NC(=O)C(C)(C)NC(=O)[C@@H](N)Cc1ccc(O)cc1)[C@@H](C)O)[C@@H](C)CC)[C@@H](C)CC)C(=O)N[C@@H](Cc1c[nH]cn1)C(=O)N[C@@H](CCC(N)=O)C(=O)NC(C)(C)C(=O)N[C@@H](CC(=O)O)C(=O)N[C@@H](Cc1ccccc1)C(=O)N[C@H](C(=O)N[C@@H](CCC(=O)O)C(=O)N[C@@H](Cc1ccc(O)cc1)C(=O)N[C@@H](CCCCNC(=O)COCCOCCNC(=O)COCCOCCNC(=O)CC[C@H](NC(=O)CCCCCCCCCCCCCCCCCCC(=O)O)C(=O)O)C(=O)N[C@@H](CC(C)C)C(=O)N[C@@H](CCC(=O)O)C(=O)NCC(=O)NCC(=O)N1CCC[C@H]1C(=O)N[C@@H](CO)C(=O)N[C@@H](CO)C(=O)NCC(=O)N[C@@H](C)C(=O)N1CCC[C@H]1C(=O)N1CCC[C@H]1C(=O)N1CCC[C@H]1C(=O)N[C@@H](CO)C(N)=O)C(C)C [Example 6]
Ki (human GcgR): 453 nM | EC50 [1]: > 5000 nM

CC[C@H](C)[C@H](NC(=O)[C@H](CCCN)NC(=O)[C@H](CC(=O)O)NC(=O)[C@H](CC(C)C)NC(=O)[C@](C)(CC(C)C)NC(=O)[C@@H](NC(=O)[C@H](CO)NC(=O)[C@H](Cc1ccc(O)cc1)NC(=O)[C@H](CC(=O)O)NC(=O)[C@H](CO)NC(=O)[C@@H](NC(=O)[C@H](Cc1ccccc1)NC(=O)[C@@H](NC(=O)CNC(=O)[C@H](CCC(=O)O)NC(=O)C(C)(C)NC(=O)[C@@H](N)Cc1ccc(O)cc1)[C@@H](C)O)[C@@H](C)CC)[C@@H](C)CC)C(=O)N[C@@H](Cc1c[nH]cn1)C(=O)N[C@@H](CCC(N)=O)C(=O)NC(C)(C)C(=O)N[C@@H](CCC(=O)O)C(=O)N[C@@H](Cc1ccccc1)C(=O)N[C@H](C(=O)N[C@H](CCC(=O)O)C(=O)N[C@@H](Cc1ccc(O)cc1)C(=O)N[C@@H](CCCCNC(=O)COCCOCCNC(=O)COCCOCCNC(=O)CC[C@H](NC(=O)CCCCCCCCCCCCCCCCC(=O)O)C(=O)O)C(=O)N[C@@H](CC(C)C)C(=O)N[C@@H](CCC(=O)O)C(=O)NCC(=O)NCC(=O)N1CCC[C@H]1C(=O)N[C@@H](CO)C(=O)N[C@@H](CO)C(=O)NCC(=O)N[C@@H](C)C(=O)N1CCC[C@H]1C(=O)N1CCC[C@H]1C(=O)N1CCC[C@H]1C(=O)N[C@@H](CO)C(N)=O)C(C)C [Example 7]
Ki (human GcgR): > 961 nM | EC50 [1]: > 5000 nM

CC[C@H](C)[C@H](NC(=O)[C@H](CO)NC(=O)[C@H](Cc1ccc(O)cc1)NC(=O)[C@H](CC(=O)O)NC(=O)[C@H](CO)NC(=O)[C@@H](NC(=O)[C@H](Cc1ccccc1)NC(=O)[C@@H](NC(=O)CNC(=O)[C@H](CCC(=O)O)NC(=O)C(C)(C)NC(=O)[C@@H](N)Cc1ccc(O)cc1)[C@@H](C)O)[C@@H](C)CC)C(=O)N[C@@H](CC(C)C)C(=O)N[C@@H](CC(C)C)C(=O)N[C@@H](CC(=O)O)C(=O)N[C@@H](CCCCN)C(=O)N[C@@H](CCCCNC(=O)COCCOCCNC(=O)COCCOCCNC(=O)CC[C@H](NC(=O)CCCCCCCCCCCCCCCCCCC(=O)O)C(=O)O)C(=O)N[C@@H](C)C(=O)N[C@@H](CCC(N)=O)C(=O)NC(C)(C)C(=O)N[C@@H](CC(=O)O)C(=O)N[C@@H](Cc1ccccc1)C(=O)N[C@H](C(=O)N[C@@H](CC(N)=O)C(=O)N[C@@H](Cc1c[nH]c2ccccc12)C(=O)N[C@@H](CC(C)C)C(=O)N[C@@H](CC(C)C)C(=O)N[C@@H](C)C(=O)N[C@@H](CCC(N)=O)C(=O)NCC(=O)N1CCC[C@H]1C(=O)N[C@@H](CO)C(=O)N[C@@H](CO)C(=O)NCC(=O)N[C@@H](C)C(=O)N1CCC[C@H]1C(=O)N1CCC[C@H]1C(=O)N1CCC[C@H]1C(=O)N[C@@H](CO)C(N)=O)C(C)C [Example 8] (H-Y[Aib]EGTFISDYSILLDKK([AEEA-AEEA-γGlu-C20 diacid])AQ[Aib]DFVNWLLAQGPSSGAPPPS-NH2)
Ki (human GcgR): 101 nM | EC50 [1]: > 5000 nM
